What was measured:
[1] = tested on: oocytes; assay: in vitro fertilization (IVF) assay; assay type: cell-based, mice; conditions: GVB oocytes after 18 hours culture, examined 20-22 hours after insemination; control 22%
Description: An in vitro fertilization (IVF) assay can be performed as follows:
Naked oocytes (NO) and cumulus enclosed oocytes (CEO) from immature mice (C57B1 16J×DBAJ/2)F, were isolated and cultured under the same conditions as described for the agonistic oocyte assay (Example 5). […] The dishes were then incubated under defined gas conditions (5% CO2) at 37° C. in a modified (α-MEM IVF-medium. Neither the insemination medium nor the IVF-medium contained hypoxanthine. Examination of the oocytes was carried out 20-22 hours after insemination, in order to check fertilization and to record the number of 2-cell embryos. The percentage fertilization (=fertilization rate) was determined from counts of oocytes that had cleaved into two-cell embryos.

[2] = tested on: oocytes; assay: agonistic oocyte assay (germinal vesicle breakdown); assay type: cell-based, mice; conditions: for relative GVB (relative effect): indexed against control (0) and FF-MAS (100); for GVB (percentage of oocytes undergoing germinal vesicle breakdown): oocytes cultured 24 hours at 37° C. in Hx-medium (3 mM hypoxanthine)
Description: An agonistic oocyte assay can be performed as follows:
Oocytes were obtained from immature female mice (C57BL/6J×DBA/2J F1, Bomholtgaard, Denmark) weighing 13-16 grams, that were kept under controlled temperature (20-22° C.), light (lights on 06.00-18.00) and relative humidity (50-70%). The mice received an intra-peritoneal injection of 0.2 ml gonadotropins (Gonal-F, Serono) containing 20 IU FSH and 48 hours later the animals were killed by cervical dislocation.
The ovaries were dissected out and the oocytes were isolated in Hx-medium (see below) under a stereo microscope by manual rupture of the follicles using a pair of 27 gauge needles. Spherical oocytes displaying an intact germinal vesicle (hereinafter designated GV) were divided in cumulus enclosed oocytes (hereinafter designated CEO) and naked oocytes (hereinafter designated NO) and placed in a-minimum essential medium (α-MEM without ribonucleosides, Gibco BRL, Cat. No. 22561) supplemented with 3 mg/ml bovine serum albumin (BSA, Sigma Cat. No. A-7030), 5 mg/ml human serum albumin (HSA, Statens Seruminstitute, Denmark), 0.23 mM pyruvate (Sigma, Cat. No S-8636), 2 mM glutamine (Flow Cat. No. 16-801), 100 IU/ml penicillin and 100 μg/ml streptomycin (Flow, Cat No. 16-700). This medium was supplemented with 3 mM hypoxanthine (Sigma Cat. No. H-9377) and designated Hx-medium.
The oocytes were rinsed three times in Hx-medium and oocytes of uniform size were divided into groups of CEO and NO. CEO and NO were cultured in 4-well multidishes (Nunclon, Denmark) in which each well contained 0.4 ml of Hx-medium. One control well (i.e., 35-45 oocytes cultured in identical medium with no addition of test compound) was always cultured simultaneously with 3 test wells (35-45 oocytes per well supplemented with test compound).
The oocytes were cultured in a humidified atmosphere of 5% CO2 in air for 24 hours at 37° C. By the end of the culture period, the number of oocytes with germinal vesicle (hereinafter designated GV), germinal vesicle breakdown (hereinafter designated GVB) and polar bodies (hereinafter designated PB), respectively, were counted using a stereomicroscope (Wildt, Leica MZ 12). The percentage GVB, defined as percentage of oocytes undergoing GVB per total number of oocytes in that well, was calculated as:
% GVB=(number of GVB+number of PB/total number oocytes)×100.
The % PB was defined as percentage of oocytes displaying one extruded polar body per total number of oocytes in that well.
The effect of the tested compounds has been indexed against control level and 4,4-5 dimethyl-5β-cholesta-8,14,24-trien-39-ol (hereinafter designated FF-MAS) where controls and FF-MAS are indexed to an effect of 0 and 100, respectively. The relative effect of the tested compound is calculated as follows: […]

[3] = tested on: naked oocytes (NO); conditions: previously shown, Byskov et al. Nature 374 (1995), 559-562; cited from earlier work
[4] = tested on: naked oocytes (NO); assay: antagonistic oocyte assay (co-culture with FF-MAS); assay type: cell-based, mice; conditions: naked oocytes in Hx-medium with 5 μM FF-MAS in co-culture with test compound
Description: An antagonistic oocyte assay can be performed as follows:
20 Oocytes were obtained from immature female mice (C57BI/6J×DBA/2J F1-hybrids, Bomholtgaard, Denmark) weighing 13-16 grams, that were kept under controlled lighting and temperature. The mice received an intra-peritoneal injection of 0.2 ml gonadotropins (Gonal F, Serono, Solna, Sweden, containing 20 IU FSH, alternatively, Puregon, Organon, Swords, Ireland containing 20 IU FSH) and 48 hours later the animals were killed by cervical dislocation.
The ovaries were dissected out and the oocytes were isolated in Hx-medium (see below) under a stereo microscope by manual rupture of the follicles using a pair of 27 gauge needles. […]
By the end of the culture period, the number of oocytes with germinal vesicle (GV) or germinal vesicle breakdown (GVB) and those with polar body (PB) was counted using a stereo-microscope or an inverted microscope with differential interference contrast equipment. The percentage of oocytes with GVB+PB per total number of oocytes were calculated in the test cultures and in the control (positive and negative) culture groups. The relative inhibition of the test compound was calculated by the following formula: […]

Molecule	melting point [°C]	fertilization rate (oocytes cleaved into two-cell embryos) [1] [%]	relative GVB (relative effect) [2] [%]	GVB (percentage of oocytes undergoing germinal vesicle breakdown) [2] [%]	induction of meiosis in NO in vitro [3]	PB (oocytes with polar body) [4] [%]
CC(C)CCC[C@@H](C)[C@H]1[C@@H](O)C[C@H]2[C@@H]3CC=C4CCCC[C@]4(C)[C@H]3CC[C@]12C [Example 1, 16β-Hydroxycholest-5-ene]	107 to 108	62	88	72		
CC(C)=CCC[C@@H](C)[C@H]1CC=C2C3=C(CC[C@@]21C)[C@@]1(C)CC[C@H](O)C(C)(C)[C@@H]1CC3 [FF-MAS, 4,4-Dimethyl-5α-cholesta-8,14,24-trien-3β-ol]					induce meiosis	
(25R)-160.26-Dihydroxycholest-5-ene [Example 4]			73	63		5

— US20020007079A1, “MEIOSIS REGULATING COMPOUNDS” (priority 1998, published 2002)
